Measurements taken from patent US12624018B1, “Inhibitors of RIPK2 and medical uses thereof” (Odyssey Therapeutics, Inc., priority 2022, dated 2026).

What follows are compounds tested against T1, RIPK2 enzyme (Homo sapiens, UniProt O43353) (assay: RIPK2 inhibition (ADP-Glo Kinase Assay)). Settings: RIPK2 5 nM, ATP 150 μM, MBP substrate, read-out: RIPK2 IC50.
T1 construct: purchased Carna 09-128
Type: biochemical
Procedure, shortened: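 Human RIPK2 (5 nM) preincubated with compound 30 min at room temperature in 50 mM HEPES pH 7.5, 10 mM MgCl2, 2 mM DTT, 1 mM EGTA, 0.01% Brij-35, 0.05% BSA; native swine MBP as substrate. ADP formed quantified by ADP-Glo luminescence; percent inhibition relative to DMSO and no-enzyme controls.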

T1 sequence (O43353 1-299 limits assumed): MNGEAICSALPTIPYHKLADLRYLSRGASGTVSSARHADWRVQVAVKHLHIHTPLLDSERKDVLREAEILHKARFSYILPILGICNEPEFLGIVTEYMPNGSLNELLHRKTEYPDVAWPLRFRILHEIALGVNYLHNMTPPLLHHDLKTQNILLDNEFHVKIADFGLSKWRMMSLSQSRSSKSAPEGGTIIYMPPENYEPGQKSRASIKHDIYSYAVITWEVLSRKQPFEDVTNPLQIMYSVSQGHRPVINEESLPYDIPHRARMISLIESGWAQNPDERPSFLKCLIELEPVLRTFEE

SMILES | IC50 [nM]
Cc1cc(CC(=O)Nc2cnn(C(C)(C)C)c2)c(F)cc1Oc1ncnc2ccc(OC3CCNCC3)cc12 [Compound 116] | < 2.5
Cc1cc(CC(=O)Nc2cnn(C(C)(C)C)c2)c(F)cc1Oc1ncnc2ccc(OC3CCN(C)CC3)cc12 [Compound 117, N-(1-(tert-butyl)-1H-pyrazol-4-yl)-2-(2-fluoro-5-methyl-4-((6-((1-methyl-piperidin-4-yl)oxy)quinazolin-4-yl)oxy)phenyl) acetamide] | < 2.5
Cc1cc(CC(=O)Nc2cnn(C(C)(C)C)c2)ccc1Oc1ccnc2ccc(S(=O)(=O)N3CCN(C)CC3)cc12 [Compound 118, N-(1-(tert-butyl)-1H-pyrazol-4-yl)-2-(3-methyl-4-((6-((4-methylpiperazin-1-yl)sulfonyl)quinolin-4-yl)oxy)phenyl)acetamide] | < 2.5
Cc1cc(CC(=O)Nc2cnn(C(C)(C)C)c2)ccc1Oc1ccnc2ccc(S(=O)(=O)N3CCNCC3)cc12 [Compound 119, N-(1-(tert-butyl)-1H-pyrazol-4-yl)-2-(3-methyl-4-((6-(piperazin-1-ylsulfonyl)quinolin-4-yl)oxy)phenyl)acetamide] | < 2.5
Cc1cc(CC(=O)Nc2cnn(C(C)(C)C)c2)ccc1Oc1ccnc2ccc(OC3CCN(CC(F)F)CC3)cc12 [Compound 120, N-(1-(tert-butyl)-1H-pyrazol-4-yl)-2-(4-((6-((1-(2,2-difluoroethyl)piperidin-4-yl)oxy)quinolin-4-yl)oxy)-3-methylphenyl) acetamide] | < 2.5
Cc1cc(CC(=O)Nc2cnn(C(C)(C)C)c2)ccc1Oc1ccnc2ccc(O[C@H]3CC[C@@H](N)CC3)cc12 [Compound 121, 2-(4-((6-(((1s,4s)-4-aminocyclo-hexyl)oxy)quinolin-4-yl)oxy)-3-methyl-phenyl)-N-(1-(tert-butyl)-1H-pyrazol-4-yl)acetamide] | < 2.5
Cc1cc(CC(=O)Nc2cnn(C(C)(C)C)c2)ccc1Oc1ccnc2ccc(O[C@H]3CC[C@H](N)CC3)cc12 [Compound 122, 2-(4-((6-(((1r,4r)-4-aminocyclohexyl)oxy)quinolin-4-yl)oxy)-3-methylphenyl)-N-(1-(tert-butyl)-1H-pyrazol-4-yl)acetamide] | < 2.5
Cc1cc(CC(=O)Nc2cnn(C(C)(C)C)c2)ccc1Oc1ccnc2ccc(O[C@H]3C[C@@H](N)C3)cc12 [Compound 123, 2-(4-((6-((1s,3s)-3-aminocyclo-butoxy)quinolin-4-yl)oxy)-3-methyl-phenyl)-N-(1-(tert-butyl)-1H-pyrazol-4-yl)acetamide] | < 2.5
Cc1cc(CC(=O)Nc2cnn(C(C)(C)C)c2)ccc1Oc1ccnc2ccc(O[C@H]3C[C@H](N)C3)cc12 [Compound 124, 2-(4-((6-((1r,3r)-3-aminocyclo-butoxy)quinolin-4-yl)oxy)-3-methyl-phenyl)-N-(1-(tert-butyl)-1H-pyrazol-4-yl)acetamide] | < 2.5
CN1CCC(S(=O)(=O)c2ccc3nccc(Oc4ccc(CC(=O)Nc5cnn(C(C)(C)C)c5)c(F)c4)c3c2)CC1 [Compound 125, N-(1-(tert-butyl)-1H-pyrazol-4-yl)-2-(2-fluoro-4-((6-((1-methylpiperidin-4-yl)sulfonyl)quinolin-4-yl)oxy)phenyl)acetamide] | < 2.5
CN1CCN(S(=O)(=O)c2ccc3nccc(Oc4ccc(CC(=O)Nc5cnn(C(C)(C)C)c5)c(F)c4)c3c2)CC1 [Compound 126, N-(1-(tert-butyl)-1H-pyrazol-4-yl)-2-(2-fluoro-4-((6-((4-methylpiperazin-1-yl)sulfonyl)quinolin-4-yl)oxy)phenyl)acetamide] | < 2.5
CC(C)(C)n1cc(NC(=O)Cc2ccc(Oc3ccnc4ccc(S(=O)(=O)C5CCNCC5)cc34)cc2F)cn1 [Compound 127, N-(1-(tert-butyl)-1H-pyrazol-4-yl)-2-(2-fluoro-4-((6-(piperidin-4-ylsulfonyl)quinolin-4-yl)oxy)phenyl)acetamide] | < 2.5
CC(C)(C)n1cc(NC(=O)Cc2ccc(Oc3ccnc4ccc(S(=O)(=O)N5CCNCC5)cc34)cc2F)cn1 [Compound 128, N-(1-(tert-butyl)-1H-pyrazol-4-yl)-2-(2-fluoro-4-((6-(piperazin-1-ylsulfonyl)quinolin-4-yl)oxy)phenyl)acetamide] | < 2.5
[2H]C([2H])([2H])N1CCC(Oc2ccc3nccc(Oc4cnc(CC(=O)Nc5cnn(C(C)(C)C)c5)c(F)c4)c3c2)CC1 [Compound 129, N-(1-(tert-butyl)-1H-pyrazol-4-yl)-2-(3-fluoro-5-((6-((1-(methyl-d3)piperidin-4-yl)oxy)quinolin-4-yl)oxy)pyridin-2-yl) acetamide] | 4.4
CCS(=O)(=O)c1ccc2nccc(Oc3ccc(CC(=O)Nc4cnn(C(C)(C)C)c4)c(F)c3)c2c1 [Compound 130, N-(1-(tert-butyl)-1H-pyrazol-4-yl)-2-(4-((6-(ethylsulfonyl)quinolin-4-yl)oxy)-2-fluorophenyl)acetamide] | < 2.5
CC(C)(C)n1cc(NC(=O)Cc2ccc(Oc3ccnc4ccc(S(=O)(=O)C5CC5)cc34)cc2F)cn1 [Compound 131, N-(1-(tert-butyl)-1H-pyrazol-4-yl)-2-(4-((6-(cyclopropylsulfonyl)quinolin-4-yl)oxy)-2-fluorophenyl)acetamide] | < 2.5
CC(C)(C)n1cc(NC(=O)Cc2ccc(Oc3ccnc4ccc(S(=O)(=O)C5COC5)cc34)cc2F)cn1 [Compound 132, N-(1-(tert-butyl)-1H-pyrazol-4-yl)-2-(2-fluoro-4-((6-(oxetan-3-ylsulfonyl)quinolin-4-yl)oxy)phenyl)acetamide] | < 2.5
CC(C)(C)n1cc(NC(=O)Cc2ccc(Oc3ncnc4ccc(OC5CCOCC5)cc34)cc2F)cn1 [Compound 133, N-(1-(tert-butyl)-1H-pyrazol-4-yl)-2-(2-fluoro-4-((6-((tetrahydro-2H-pyran-4-yl)oxy)quinazolin-4-yl)oxy)phenyl) acetamide] | 10.9
CN1CCC(Oc2ccc3nccc(Oc4cnc(CC(=O)Nc5cc(C(C)(C)C)[nH]n5)c(F)c4)c3c2)CC1 [Compound 134, N-(5-(tert-butyl)-1H-pyrazol-3-yl)-2-(3-fluoro-5-((6-((1-methylpiperidin-4-yl)oxy)quinolin-4-yl)oxy)pyridin-2-yl)acetamide] | < 2.5
CC(C)(C)c1cc(NC(=O)Cc2ncc(Oc3ccnc4ccc(OC5CCNCC5)cc34)cc2F)n[nH]1 [Compound 135, N-(5-(tert-butyl)-1H-pyrazol-3-yl)-2-(3-fluoro-5-((6-(piperidin-4-yloxy)quinolin-4-yl)oxy)pyridin-2-yl)acetamide] | < 2.5
CN1CCC(Oc2ccc3nccc(Oc4ccc(CC(=O)Nc5cc(C(C)(C)C)[nH]n5)c(F)c4)c3c2)CC1 [Compound 136, N-(5-(tert-butyl)-1H-pyrazol-3-yl)-2-(2-fluoro-4-((6-((1-methyl-piperidin-4-yl)oxy)quinolin-4-yl)oxy)phenyl) acetamide] | < 2.5
CC(C)(C)c1cc(NC(=O)Cc2ccc(Oc3ccnc4ccc(OC5CCNCC5)cc34)cc2F)n[nH]1 [Compound 137, N-(5-(tert-butyl)-1H-pyrazol-3-yl)-2-(2-fluoro-4-((6-(piperidin-4-yloxy)quinolin-4-yl)oxy)phenyl) acetamide] | < 2.5
COC(C)(C)c1ccc2nccc(Oc3cnc(CC(=O)Nc4cnn(C(C)(C)C)c4)c(F)c3)c2c1 [Compound 138, N-(1-(tert-butyl)-1H-pyrazol-4-yl)-2-(3-fluoro-5-((6-(2-methoxypropan-2-yl)quinolin-4-yl)oxy)pyridin-2-yl)acetamide] | 5.2
